Results as given in publication PMC10981597 (Amino Acids, 2024).

How the values were obtained:
[1] = type: physicochemical; conditions: pH 7.4
[2] = type: physicochemical; conditions: pH 6.5
[3] = human, serum

Row | SMILES | ANS fluorescence intensity with increasing peptide concentration (self-assembly) [1] | self-assembled morphology by TEM [2] | remaining at 24 h [3] [%]
1 | CCCCCCCCCCCCCCNCCCC[C@@H]1NC(=O)CNC(=O)[C@H](CCCCNCCCCCCCCCCCCCC)NC(=O)[C@@H](N)CSSC[C@@H]2NC(=O)[C@@H]3CSSC[C@@H](C(N)=O)NC(=O)[C@H](CCCCN)NC(=O)CNC(=O)[C@H](CO)NC(=O)[C@H](CCCNC(=N)N)NC(=O)[C@H](CSSC[C@H](NC(=O)[C@H](CCCCN)NC(=O)[C@H](C)NC(=O)CNC1=O)C(=O)N[C@@H](CO)C(=O)N[C@@H](CCCNC(=N)N)C(=O)N[C@@H](CC(C)C)C(=O)N[C@@H](CCSC)C(=O)N[C@@H](Cc1ccc(O)cc1)C(=O)N[C@@H](CC(=O)O)C(=O)N3)NC(=O)[C@H](CO)NC(=O)CNC(=O)[C@H]([C@@H](C)O)NC2=O [K2-K4-MVIIA] | significant increase in fluorescence intensity | nanomicellar structures | 75.6
2 | CSCC[C@@H]1NC(=O)[C@H](CC(C)C)NC(=O)[C@H](CCCNC(=N)N)NC(=O)[C@H](CO)NC(=O)[C@@H]2CSSC[C@@H]3NC(=O)[C@H](CO)NC(=O)CNC(=O)[C@H]([C@@H](C)O)NC(=O)[C@H](CSSC[C@H](N)C(=O)N[C@@H](CCCCN)C(=O)NCC(=O)N[C@@H](CCCCN)C(=O)NCC(=O)N[C@@H](C)C(=O)N[C@@H](CCCCN)C(=O)N2)NC(=O)[C@H](CSSC[C@@H](C(N)=O)NC(=O)[C@H](CCCCN)NC(=O)CNC(=O)[C@H](CO)NC(=O)[C@H](CCCNC(=N)N)NC3=O)NC(=O)[C@H](CC(=O)O)NC(=O)[C@H](Cc2ccc(O)cc2)NC1=O [MVIIA, ω-conotoxin MVIIA, reference compound] | almost no increase in fluorescence intensity | oligomers | –
3 | CCCCCCCCCCCCCCNCCCC[C@@H]1NC(=O)[C@@H](N)CSSC[C@@H]2NC(=O)[C@@H]3CSSC[C@@H](C(N)=O)NC(=O)[C@H](CCCCN)NC(=O)CNC(=O)[C@H](CO)NC(=O)[C@H](CCCNC(=N)N)NC(=O)[C@H](CSSC[C@H](NC(=O)[C@H](CCCCN)NC(=O)[C@H](C)NC(=O)CNC(=O)[C@H](CCCCN)NC(=O)CNC1=O)C(=O)N[C@@H](CO)C(=O)N[C@@H](CCCNC(=N)N)C(=O)N[C@@H](CC(C)C)C(=O)N[C@@H](CCSC)C(=O)N[C@@H](Cc1ccc(O)cc1)C(=O)N[C@@H](CC(=O)O)C(=O)N3)NC(=O)[C@H](CO)NC(=O)CNC(=O)[C@H]([C@@H](C)O)NC2=O [K2-MVIIA] | significant increase in fluorescence intensity | nanomicellar structures | 78.7
